# No end group written: not given here.
# Tests used:
# [1] = rat, in vivo
# Procedure: (§1) The experiment was conducted in the following manner. Sprague Dawley rats (male), weighing 200 to 300 g, were narcotized (after fast for 20 hours) with pentobarbital (50 mg/kg) and thereafter subjected to hypoabdominal incision for a first cannulation at a position about 1.5 cm from anus and also another cannulation at a position 5 cm above the first cannulation. Subsequently, the rectum was internally washed with about 50 ml of isotonic sodium chloride solution kept at 38° C., and samples each of 10 ml were circulated through rectum for 5 minutes (2 ml/minute) to make the concentration in the system constant. Then, 5 ml of each sample was circulated at a flow rate of 2 ml/minute, and samples each of 0.05 ml were collected at intervals of 10 minutes from 0 minute. Each sample was diluted to 5 ml with distilled water and the quantity of medicine disappeared by absorption was determined by UV spectrophotometer.
# [2] = Cephalothin concentration in blood after injection through anus (Example 6); assay type: in vivo, rat; details: with 6% sodium chloride and 1.0% disodium EDTA mono-ethylate vs 2% Cephalothin.Na control
# Procedure: Using 2% solution of Cephalothin.Na (in 0.1M Tris-HCl buffer, pH 8.0) as Control, an injection agent was prepared by adding 6% sodium chloride and 1.0% disodium EDTA mono-ethylate to said solution.
# [3] = Rectal circulation: Cephalothin disappeared by absorption (Examples 10-14, 16-18); details: rat, in vivo
# Procedure: The experiments were conducted similarly as in Example 1. […] Each sample was diluted and the quantity of Cephalothin disappeared was determined by UV-spectrophotometer of high-speed liquid chromatography.
# [4] = Calcium concentration after intrarectal calcitonin preparation, relative effect (Example 8); assay type: in vivo, SD rats; details: after one hour, CVP and CT set at standard value of 1
# [5] = rabbit, in vivo, 250 mg/kg
# [6] = rat, in vivo; remark: listed apart in the source
# Procedure: Absorption effects under conditions with various tonicities were examined.
# as §1
# Quantities of 0.5 W/W % Cefmetazole.Na disappeared by absorption under isotonic and three-fold tonic conditions were determined, respectively, using sodium malate, sodium pyruvate, sodium phosphenolpyruvate, sodium β-hydroxybutyrate, sodium β-hydroxy glutarate, and sodium 2-phospho-D-glycerate.
compound,measurement,setting,value
Tuberactinomycin,absorptions through rectum,[1],increased by the presence of EDTA.2Na and sodium chloride
"CC(=O)OCC1=C(C(=O)O)N2C(=O)[C@@H](NC(=O)Cc3cccs3)[C@H]2SC1 [Cephalothin.Na, reference compound]",concentrations in blood,[2],significantly increased
same,"Cephalothin disappeared by absorption, Osmotic pressure (%) X 1",[3],1.2%
same,"Cephalothin disappeared by absorption, Osmotic pressure (%) X 2",[3],1.6%
same,"Cephalothin disappeared by absorption, Osmotic pressure (%) X 4",[3],3.1%
same,"Cephalothin disappeared by absorption, Osmotic pressure X 1",[3],1.2 percents
same,"Cephalothin disappeared by absorption, Osmotic pressure X 2",[3],1.6 percents
same,"Cephalothin disappeared by absorption, Osmotic pressure X 4",[3],3.1 percents
"calcitonin (CGNLSTCMLGTYTQDFNKFHTFPQTAIGVGAP; ends and bridges not checked; cysteine pairing not given here; UniProt P01258 85-116, looked up) [CT]","relative effect on calcium concentration, Isotonic",[4]; glucose 0.25M,1
same,"relative effect on calcium concentration, 6-fold tonic",[4]; glucose 1.5M,1.67
same,"relative effect on calcium concentration, 3-fold tonic",[4]; glucose […],1.05
Polymyxin B,"Excreted amount in urine (0-6 hr, %)",[5],0.8%
CO[C@@]1(NC(=O)CSCC#N)C(=O)N2C(C(=O)O)=C(CSc3nnnn3C)CS[C@@H]21 [Cefmetazole.Na],quantity of Cefmetazole.Na disappeared by absorption,[6],practically negligible
Colistin methane sulfonate sodium [Colistin methanesulfonate sodium],"Excreted amount in urine (0-6 hr, %)",[5],1.0%

# From patent publication US4900730A, “Preparation which promotes the absorption of peptides” (priority 1981, dated 1990)
